From US20240417387A1, “SULFONYLPIPERAZINYL COMPOUNDS FOR TREATMENT OF BACTERIAL INFECTIONS” (Hoffmann-La Roche Inc., priority 2021, published 2024) come the findings set out here.

A short description of data set [1]: Human microsome stability assay. The following applies: human liver microsomes 0.5 mg/mL, 37° C., pH 7.4, NADPH regenerating system. It counts as in vitro ADME. On the procedure:
The human microsomal stability assay is used for early assessment of metabolic stability of a test compound in human liver microsomes.
Human liver microsomes (Cat.NO.: 452117, Corning, USA) were preincubated with test compound for 10 minutes at 37° C. in 100 mM potassium phosphate buffer, pH 7.4. The reactions were initiated by adding NADPH regenerating system. The final incubation mixtures contained 1 µM test compound, 0.5 mg/mL liver microsomal protein, 1 mM MgCl2, 1 mM NADP, 1 unit/mL isocitric dehydrogenase and 6 mM isocitric acid in 100 mM potassium phosphate buffer, pH 7.4. After incubation times of 0, 3, 6, 9, 15 and 30 minutes at 37° C., 300 μL of cold acetonitrile (including internal standard) was added to 100 μL incubation mixture to terminate the reaction. Following precipitation and centrifugation, the amount of compound remaining in the samples were determined by LC-MS/MS. Controls of no NADPH regenerating system at zero and 30 minutes were also prepared and analyzed. […] (Human microsome clearance: <7 mL/min/kg: low; 7-16.2 mL/min/kg: medium; >16.2 mL/min/kg: high)
A general note: Microsomes from liver hold many membrane-bound enzymes, among them those of drug oxidation.

In data set [2] the test system is Escherichia coli ATCC 25922. Kind of data set: Minimal Inhibitory Concentration (MIC) broth dilution assay, E. coli ATCC 25922. The data set is classed as cell-based. Particulars: Escherichia coli, ATCC25922, 20 h, read-out: MIC E. coli ATCC 25922. As to the method: (§1) The antibacterial activity of molecules was evaluated against the commonly used quality control strain Escherichia coli BW 25113, Escherichia coli ATCC 25922 and the rifampin-resistant mutant strain Klebsiella pneumonia ATCC 43816. Escherichia co/i BW 25113 was obtained from the Coli Genetic Stock Center (CGSC) (strain 7636). Both Escherichia coli ATCC 25922 and Klebsiella pneumonia ATCC 43816 were originally derived from human clinical samples and are available from ATCC (American Type Culture Collection). The in vitro potency of compounds to inhibit Escherichia coli (BW 25113, ATCC 25922) and Klebsiella pneumonia (ATCC 43816) growth was assessed by the MIC (Minimal Inhibitory Concentration) broth dilution method. Specifically compound dilutions were prepared from 10 mM DMSO stock solutions as follows: i) serial 2-fold dilution in 20 μL DMSO were prepared in a master plate (Greiner, Cat No: 651201), ii) 180 μL sterile distilled water was added to each aliquot and iii) 10 μL diluted compounds were transferred into a new assay plate (Costar, 3599).
(§2) Vials of each test microorganisms were maintained frozen in the vapor phase of a liquid nitrogen freezer. Single-use frozen vials of the three strains Escherichia coli BW 25113, Escherichia coli ATCC 25922 (KWTKSTTK, 0335K) and Klebsiella pneumonia ATCC 43816, with predetermined CFU/mL, were taken out from the freezer, thawed at room temperature, and diluted in Cation-Adjusted Mueller Hinton Broth (CAMVIHB) to achieve a final inoculum of 5×10^5 CFU/mL. 90 μL bacteria containing broth was dispensed to the assay plate containing the pre-dispensed compound dilutions and mixed by pipetting 5 times.
(§3) Then the assay plates were incubated for 20 hours at 35° C. in ambient air. Following incubation, the MIC […], the lowest concentration of drug that inhibits visible growth of the microorganism was read with the help of a magnification mirror and recorded.
(In broth dilution the organism is exposed to a series of concentrations in liquid medium.)

In data set [3] the test system is Escherichia coli BW 25113. The data set is described as follows: Minimal Inhibitory Concentration (MIC) broth dilution assay, E. coli BW 25113. The data set is classed as cell-based. The following applies: Escherichia coli, BW25113, 20 hours at 35° C., CAMHB, read-out: MIC E. coli K-12 BW 25113. On the procedure:
as §1, §2, §3

Data set [4] concerns Klebsiella pneumonia ATCC 43816. The data set is described as follows: Minimal Inhibitory Concentration (MIC) broth dilution assay, K. pneumonia ATCC 43816. It counts as cell-based. Particulars: Klebsiella pneumoniae, ATCC43816, 20 hours at 35° C., CAMHB, read-out: MIC K. p ATCC 43816. As to the method:
as §1, §2, §3

Broadly, the MIC is the smallest concentration in the dilution series that meets the test's criterion for growth inhibition.

Values after ≈ are worked out from the molar mass of the structure shown.

For the molecule `NC1CC(=O)N(c2ccc(S(=O)(=O)N3CCN(c4cc(C(F)(F)c5ccc(C(=O)NCCCO)cc5)cc(Cl)n4)CC3)cc2)C1` (stereo not shown) [Example 015, 4-[[2-[4-[4-(4-amino-2-oxo-pyrrolidin-1-yl)phenyl]sulfonylpiperazin-1-yl]-6-chloro-4-pyridyl]-difluoro-methyl]-N-(3-hydroxypropyl)benzamide], the “Clearance of Human microsome” value in data set [1] came to 9.58 mL/min/kg. Further, the MIC in data set [2], in data set [3] and in data set [4] was 0.7 µg/mL (≈ 1.06 µM) each time.

Take `NCCCNC(=O)c1ccc(C(F)(F)c2cc(Cl)nc(N3CCN(S(=O)(=O)c4ccc(N5CC(N)CC5=O)cc4)CC3)c2)cc1` (stereo not shown) [Example 016, 4-[[2-[4-[4-(4-amino-2-oxo-pyrrolidin-1-yl)phenyl]sulfonylpiperazin-1-yl]-6-chloro-4-pyridyl]-difluoro-methyl]-N-(3-aminopropyl)benzamide]: the “Clearance of Human microsome” value in data set [1] came to 8.63 mL/min/kg. For the same molecule, the MIC in data set [2], in data set [3] and in data set [4] was 0.35 µg/mL (≈ 0.529 µM) throughout.

`NCCNC(=O)c1ccc(C(F)(F)c2cc(Cl)nc(N3CCN(S(=O)(=O)c4ccc(N5CC(N)CC5=O)cc4)CC3)c2)cc1` (stereo not shown) [Example 017, N-(2-aminoethyl)-4-[[2-[4-[4-(4-amino-2-oxo-pyrrolidin-1-yl)phenyl]sulfonylpiperazin-1-yl]-6-chloro-4-pyridyl]-difluoro-methyl]benzamide]: the “Clearance of Human microsome” value in data set [1] worked out at 9.36 mL/min/kg. Further, the MIC in data set [2] worked out at 0.3 µg/mL (≈ 0.463 µM); in data set [3] it was 0.35 µg/mL (≈ 0.54 µM); in data set [4], 0.45 µg/mL (≈ 0.694 µM).

Turning to `NCC(O)CNC(=O)c1ccc(C(F)(F)c2cc(Cl)nc(N3CCN(S(=O)(=O)c4ccc(N5CC(N)CC5=O)cc4)CC3)c2)cc1` (stereo not shown) [Example 018, N-(3-amino-2-hydroxy-propyl)-4-[[2-[4-[4-(4-amino-2-oxo-pyrrolidin-1-yl)phenyl]sulfonylpiperazin-1-yl]-6-chloro-4-pyridyl]-difluoro-methyl]benzamide], the “Clearance of Human microsome” value in data set [1] is 6.15 mL/min/kg. Further, the MIC in data set [2], in data set [3] and in data set [4] was 0.62 µg/mL (≈ 0.914 µM) each time.

Turning to `NCC(O)CNC(=O)c1ccc(C(F)(F)c2cc(Cl)nc(N3CCN(S(=O)(=O)c4ccc(N5C[C@H](N)CC5=O)cc4)CC3)c2)cc1` (stereo partly drawn) [Example 019, N-(3-amino-2-hydroxy-propyl)-4-[[2-chloro-6-[4-[4-[(4R)-4-amino-2-oxo-pyrrolidin-1-yl]phenyl]sulfonylpiperazin-1-yl]-4-pyridyl]-difluoro-methyl]benzamide], in data set [1], the “Clearance of Human microsome” value is 10.63 mL/min/kg. Moreover, the MIC in data set [2] was 0.71 µg/mL (≈ 1.05 µM); in data set [3] it was 0.35 µg/mL (≈ 0.516 µM); in data set [4], 0.35 µg/mL (≈ 0.516 µM).

`NCCNC(=O)[C@H]1CC[C@H](C(F)(F)c2cc(Cl)nc(N3CCN(S(=O)(=O)c4ccc(N5C[C@H](N)CC5=O)cc4)CC3)c2)CC1` [Example 041, Trans-N-(2-aminoethyl)-4-[[2-chloro-6-[4-[4-[(4R)-4-amino-2-oxo-pyrrolidin-1-yl]phenyl]sulfonylpiperazin-1-yl]-4-pyridyl]-difluoro-methyl]cyclohexanecarboxamide]: the “Clearance of Human microsome” value in data set [1] was found to be 9.73 mL/min/kg. Also, the MIC in data set [2], in data set [3] and in data set [4] was 0.54 µg/mL (≈ 0.825 µM) in each case.

As to `NCCCN(CCCN)C(=O)C12CCC(C(F)(F)c3cc(Cl)nc(N4CCN(S(=O)(=O)c5ccc(N6C[C@H](N)CC6=O)cc5)CC4)c3)(CC1)C2` [Example 046], the “Clearance of Human microsome” value in data set [1] came out at 6.15 mL/min/kg. For the same molecule, the MIC in data set [2] came to 1.2 µg/mL (≈ 1.63 µM); in data set [3] it was 2.4 µg/mL (≈ 3.26 µM); in data set [4] it was 1.2 µg/mL (≈ 1.63 µM).

With `NCCCNC(=O)C1C[C@@H]2CC[C@H]1CC2C(F)(F)c1cc(Cl)nc(N2CCN(S(=O)(=O)c3ccc(N4C[C@H](N)CC4=O)cc3)CC2)c1` (stereo partly shown) [Example 053], the “Clearance of Human microsome” value in data set [1] is given as 6.15 mL/min/kg. The MIC amounted to 0.57 µg/mL (≈ 0.821 µM) in data set [2], 0.55 µg/mL (≈ 0.792 µM) in data set [3] and 0.54 µg/mL (≈ 0.778 µM) in data set [4].

Take `C[C@H]1C[C@H](N)CN1C(=O)[C@H]1CC[C@H](C(F)(F)c2cc(Cl)nc(N3CCN(S(=O)(=O)c4ccc(N5C[C@H](N)CC5=O)cc4)CC3)c2)CC1` [Example 064, (4R)-4-amino-1-[4-[4-[4-[[4-[(2S,4S)-4-amino-2-methyl-pyrrolidine-1-carbonyl]cyclohexyl]-difluoro-methyl]-6-chloro-2-pyridyl]piperazin-1-yl]sulfonylphenyl]pyrrolidin-2-one]: in data set [1], the “Clearance of Human microsome” value is reported as 6.15 mL/min/kg. Also, the results for the MIC in data set [2], in data set [3] and in data set [4] were 0.57 µg/mL (≈ 0.821 µM), 0.67 µg/mL (≈ 0.965 µM) and 0.57 µg/mL (≈ 0.821 µM), respectively.

On to `C[N+](CCN)(CCN)CCCNC(=O)[C@H]1CC[C@H](C(F)(F)c2cc(Cl)nc(N3CCN(S(=O)(=O)c4ccc(N5C[C@H](N)CC5=O)cc4)CC3)c2)CC1` [Example 065, Trans-bis(2-aminoethyl)-[3-[[4-[[2-[4-[4-[(4R)-4-amino-2-oxo-pyrrolidin-1-yl]phenyl]sulfonylpiperazin-1-yl]-6-chloro-4-pyridyl]-difluoro-methyl]cyclohexanecarbonyl]amino]propyl]-methyl-ammonium], for which the “Clearance of Human microsome” value in data set [1] came out at 8.21 mL/min/kg. The MIC in data set [2], in data set [3] and in data set [4] was 0.66 µg/mL in each case.

Take `NC[C@@H]1CN(C(=O)[C@H]2CC[C@H](C(F)(F)c3cc(Cl)nc(N4CCN(S(=O)(=O)c5ccc(N6C[C@H](N)CC6=O)cc5)CC4)c3)CC2)C[C@@H]1CN` [Example 067, Trans-(4R)-4-amino-1-[4-[4-[4-[[4-[cis-3,4-bis(aminomethyl)pyrrolidine-1-carbonyl]cyclohexyl]-difluoro-methyl]-6-chloro-2-pyridyl]piperazin-1-yl]sulfonylphenyl]pyrrolidin-2-one]: in data set [1], the “Clearance of Human microsome” value was 6.15 mL/min/kg. In addition, the MIC was 0.3 µg/mL (≈ 0.415 µM) in data set [2], 0.59 µg/mL (≈ 0.816 µM) in data set [3] and 0.57 µg/mL (≈ 0.788 µM) in data set [4].

Take `C[C@H]1CNC[C@@H]1NC(=O)[C@H]1CC[C@H](C(F)(F)c2cc(Cl)nc(N3CCN(S(=O)(=O)c4ccc(N5C[C@H](N)CC5=O)cc4)CC3)c2)CC1` [Example 068, Trans-4-[[2-[4-[4-[(4R)-4-amino-2-oxo-pyrrolidin-1-yl]phenyl]sulfonylpiperazin-1-y1]-6-chloro-4-pyridy1]-difluoro-methyl]-N-[(3R,4S)-4-methylpyrrolidin-3-yl]cyclohexanecarboxamide]: in data set [1], the “Clearance of Human microsome” value was 9.49 mL/min/kg. The MIC in data set [2], in data set [3] and in data set [4] was 0.32 µg/mL (≈ 0.461 µM) each time.

For `CN[C@@H]1CC(=O)N(c2ccc(S(=O)(=O)N3CCN(c4cc(C(F)(F)[C@H]5CC[C@H](C(=O)NCCCN)CC5)cc(Cl)n4)CC3)cc2)C1` [Example 069, Trans-N-(3-aminopropyl)-4-[[2-chloro-6-[4-[4-[(4R)-4-(methylamino)-2-oxo-pyrrolidin-1-yl]phenyl]sulfonylpiperazin-1-y1]-4-pyridyl]-difluoro-methyl]cyclohexanecarboxamide], in data set [1], the “Clearance of Human microsome” value was determined as 10.85 mL/min/kg. Moreover, the MIC in data set [2], in data set [3] and in data set [4] was 0.56 µg/mL (≈ 0.821 µM) throughout.

Take `NC[C@@H]1CN([C@@H]2CC[C@H](NC(=O)[C@H]3CC[C@H](C(F)(F)c4cc(Cl)nc(N5CCN(S(=O)(=O)c6ccc(N7C[C@H](N)CC7=O)cc6)CC5)c4)CC3)C2)C[C@@H]1CN` [Example 080, Trans-4-[[2-[4-[4-[(4R)-4-amino-2-oxo-pyrrolidin-1-yl]phenyl]sulfonylpiperazin-1-yl]-6-chloro-4-pyridyl]-difluoro-methyl]-N-[(1S,3R)-3-[cis-3,4-bis(aminomethyl)pyrrolidin-1-yl]cyclopentyl]cyclohexanecarboxamide]: the MIC in data set [2] was found to be 0.33 µg/mL (≈ 0.409 µM); in data set [3], 0.33 µg/mL (≈ 0.409 µM); in data set [4], 0.99 µg/mL (≈ 1.23 µM).
